# Laboratory results: patent US20220264878A1, “HERBICIDAL COMPOSITION CONTAINING R-TYPE PYRIDYLOXY CARBOXYLIC ACID DERIVATIVE AND USE THEREOF” (Qingdao Kingagroot Chemical Compound Co., Ltd., priority 2019, published 2022)
# Key:
# Format in all cases: in vivo
# Acalypha australis = assay: Post-emergence foliage spray, pot culture, fresh weight inhibition (Tables 1-48, 51-98, 101-148; 24 days)
# Method in brief: (§1)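 Greenhouse pot plants (20–30 °C, natural light, 57–72% RH) were sprayed once on foliage at 450 kg/ha and 0.3 MPa, at the 5–6-leaf (grass) or 6–7-leaf (broadleaf) stage. Compounds were in acetone diluted with 0.1% Tween-80 water. Surviving shoots were weighed at 24 days; dead plants counted as zero.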
# Amaranthus retroflexus = assay: as above
# Method in brief: as §1
# Chenopodium album = assay: as above; settings: Table 96
# Method in brief: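 Pot-grown weeds were thinned to 15 per pot (45 per treatment) and sprayed on foliage at the 5–6-leaf stage for grasses or the 6–7-leaf stage for broadleaves. Agents were dissolved in acetone with 0.1% Tween-80 and applied at 450 kg/ha spray volume and 0.3 MPa. Plants were then kept in a greenhouse. Above-ground fresh weight of survivors, with dead plants counted as zero, gave inhibition versus a solvent/emulsifier blank.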
# Conyza Canadensis = assay: Post-emergence foliage spray, pot culture, fresh weight inhibition (Tables 151-206; 20 days)
# Procedure: (§2) Table 151-206: Digitaria sanguinalis, Amaranthus retroflexus, Conyza Canadensis, Capsella bursa-pastoris, Eleusine indica were collected in Huangdao of Shandong Province, Sinapis arvensis were collected in Sixian of Anhui Province, Alopecurus japonicus were collected in Tianchang of Anhui Province, Veronica didyma were collected in Siyang of Jiangsu Province.
# (§3) The above weeds were cultivated by a pot culture method. […] Full and uniform weed seeds were selected, soaked in warm water at 25° C. for 6 hours, and germinated in a 28° C. biochemical incubator (darkness). The weed seeds that had just germinatedwere evenly placed on the surface of the soil and then covered with 0.5-1 cm soil according to the sizes of seeds.
# (§4) The culture was carried out in a controllable sunlight greenhouse at 20 to 30° C., in natural light, and relative humidity of 57% to 72%.
# (§5) The technical materials were all dissolved in acetone, and diluted with an aqueous solution containing 0.1% emulsifier Tween-80. The dilution is performed as required.
# (§6) A ratio of the active ingredient A to the active ingredient B and amounts thereof in each group depends on the characteristics and toxicity of the two agents, as well as the main application purpose of a corresponding formulation. Based on the pre-tests in this study, the dosage of the active ingredient A and B applied alone and in combination were shown in the tables. Water containing the solvent and emulsifier same with the above groups but free of the agents was used as a blank control.
# (§7) Table 1-48, 51-98, 101-148, 151-206: […] per treatment, that is, a total of 60 weeds were treated in one treatment.
# (§8) Table 151-206: The agents were used for only once in the experiment. In the stage of weeds with 3˜4 leaves, the weeds were thinned out to maintain 15 weeds per pot and 45 weeds for each treatment, then continued to be cultured to 4˜5 leaves stage of grassy weeds, 5˜6 leaves stage of broadleaf weeds, and treated.
# (§9) The well-cultured weeds were evenly placed on a platform with an area of 0.5 m^2, and a solution of agents was sprayed on the stems and leaves thereof by the 3WP-2000-type walking spray tower at a dosage of 450 kg/ha and at a spray pressure of 0.3 MPa. After all the solution was sprayed, the valve was closed. After 30 seconds, the door of the spray tower was opened, and the nutritional bowl was taken out. Then the valve was opened, and the spray tube was cleaned by spraying 50 ml of water.
# (§10) A pot-culture method was employed. For the cultivation of weeds, please refer to the Section 1.1), and “Pesticide guidelines for laboratory bioactivity tests—herbicides”. As to a method for applying agents, please refer to the section 2.3.2), that is, a foliage treatment was employed. After the treatment, the weeds were routinely cultured in a greenhouse.
# (§11) A method for investigating absolute number was employed, wherein whole seedlings of survival weeds were cut off with a blade along the soil surface, and the fresh weight of the weeds was weighed with an analytical balance. For dead weeds, the fresh weight thereof was zero.
# (§12) Table 151-206: The investigation was performed after 20 days of the treatment for only once.
# (§13) Theoretical fresh weight inhibition rate of a combination of two active ingredients in each group was calculated by the Gowing method (E0=X+Y−X*Y/100), and then compared with an actually measured inhibition rate (E), thereby effect of the combination (hereafter referred to as combined effect) on weeds was evaluated: the value of E-E0, which was greater than 10%, corresponded to a synergistic effect, the value of E-E0, which was less than −10%, corresponded to an antagonistic effect, and the value of E-E0, which was from −10% to 10%, corresponded to an additional effect.
# Veronica didyma = assay: as above
# Procedure: as §2, §3, §4, §5, §6, §7, §8, §9, §10, §11, §12, §13
# [1] = B alone 75 g a.i./ha, 20 days after treatment
# [2] = B alone 150 g a.i./ha, 20 days after treatment
# [3] = B alone 300 g a.i./ha, 20 days after treatment
# [4] = B alone 600 g a.i./ha, 20 days after treatment
smiles,measurement,setting,value
C#CCN1C(=O)COc2cc(F)c(N3C(=O)C4=C(CCCC4)C3=O)cc21 [flumioxazin],Control effect (%) of B applied alone in corresponding dose,Acalypha australis; B 7.5 g a.i./ha,6.9%
same,Control effect (%) of B applied alone in corresponding dose,Acalypha australis; B 15 g a.i./ha,13.7%
same,Control effect (%) of B applied alone in corresponding dose,Acalypha australis; B 30 g a.i./ha,39.0%
same,Control effect (%) of B applied alone in corresponding dose,Acalypha australis; B 60 g a.i./ha,79.3%
same,Control effect (%) of B applied alone in corresponding dose,Amaranthus retroflexus; flumioxazin 7.5 g a.i./ha,5.5%
same,Control effect (%) of B applied alone in corresponding dose,Amaranthus retroflexus; flumioxazin 15 g a.i./ha,12.4%
same,Control effect (%) of B applied alone in corresponding dose,Amaranthus retroflexus; flumioxazin 30 g a.i./ha,37.4%
same,Control effect (%) of B applied alone in corresponding dose,Amaranthus retroflexus; flumioxazin 60 g a.i./ha,78.9%
same,Control effect (%) of B applied alone in corresponding dose,Chenopodium album; 7.5 g a.i./ha,3.4%
same,Control effect (%) of B applied alone in corresponding dose,Chenopodium album; 15 g a.i./ha,12.8%
same,Control effect (%) of B applied alone in corresponding dose,Chenopodium album; 30 g a.i./ha,37.3%
same,Control effect (%) of B applied alone in corresponding dose,Chenopodium album; 60 g a.i./ha,78.8%
C[n+]1ccc(-c2cc[n+](C)cc2)cc1 [paraquat dichloride],Control effect (%) of B applied alone in corresponding dose,"Conyza Canadensis; B 75 g a.i./ha, 20 days",3.2%
same,Control effect (%) of B applied alone in corresponding dose,"Conyza Canadensis; B 150 g a.i./ha, 20 days",17.2%
same,Control effect (%) of B applied alone in corresponding dose,"Conyza Canadensis; B 300 g a.i./ha, 20 days",47.9%
same,Control effect (%) of B applied alone in corresponding dose,"Conyza Canadensis; B 600 g a.i./ha, 20 days",75.2%
same,Control effect (%) of B applied alone in corresponding dose,Conyza Canadensis; [1],3.2%
same,Control effect (%) of B applied alone in corresponding dose,Conyza Canadensis; [2],17.2%
same,Control effect (%) of B applied alone in corresponding dose,Conyza Canadensis; [3],47.9%
same,Control effect (%) of B applied alone in corresponding dose,Conyza Canadensis; [4],75.2%
c1cc[n+]2c(c1)-c1cccc[n+]1CC2 [diquat Dibromide monohydrate],Control effect (%) of B applied alone in corresponding dose,"Veronica didyma; B 75 g a.i./ha, 20 days",5.5%
same,Control effect (%) of B applied alone in corresponding dose,"Veronica didyma; B 150 g a.i./ha, 20 days",12.6%
same,Control effect (%) of B applied alone in corresponding dose,"Veronica didyma; B 300 g a.i./ha, 20 days",41.3%
same,Control effect (%) of B applied alone in corresponding dose,"Veronica didyma; B 600 g a.i./ha, 20 days",80.4%
same,Control effect (%) of B applied alone in corresponding dose,Veronica didyma; [1],5.5%
same,Control effect (%) of B applied alone in corresponding dose,Veronica didyma; [2],12.6%
same,Control effect (%) of B applied alone in corresponding dose,Veronica didyma; [3],41.3%
same,Control effect (%) of B applied alone in corresponding dose,Veronica didyma; [4],80.4%
